From patent US20060241172A1, “Benzodioxane and benzodioxolane derivatives and uses thereof” (Wyeth, priority 2005, published 2006) come the findings set out here.

Where a name gives a salt, the structure may show the parent alone.

In one data set the target is T1, human 5-HT2C receptor (Homo sapiens, UniProt P28335).
T1 sequence (P28335 33-458): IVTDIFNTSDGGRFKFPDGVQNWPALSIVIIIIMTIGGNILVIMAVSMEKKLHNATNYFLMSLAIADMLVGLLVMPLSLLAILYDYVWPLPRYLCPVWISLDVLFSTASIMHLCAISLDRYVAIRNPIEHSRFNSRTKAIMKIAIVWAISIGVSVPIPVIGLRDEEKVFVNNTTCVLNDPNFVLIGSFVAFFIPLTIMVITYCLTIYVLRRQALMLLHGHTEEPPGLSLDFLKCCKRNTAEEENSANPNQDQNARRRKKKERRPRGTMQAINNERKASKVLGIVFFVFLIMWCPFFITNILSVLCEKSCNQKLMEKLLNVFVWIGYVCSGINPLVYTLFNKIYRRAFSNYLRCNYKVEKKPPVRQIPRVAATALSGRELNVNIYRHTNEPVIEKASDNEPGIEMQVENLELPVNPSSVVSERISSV
Put plainly: 5-HT2C receptor-stimulated calcium mobilization (FLIPR) in CHO cells. Particulars: CHO; read-out: 5-HT2C Function EMax (%). Type of data set: cell-based. A general note: Calcium assays in cells follow changes in intracellular calcium, usually with a dye or a luminescent sensor.
In general, Emax refers to the greatest response seen or fitted, relative to the assay's reference. For the compound `CNCC1COc2cccc(-c3cccc(C)c3C)c2O1` (centres unmarked) [Compound I-25, {[8-(2,3-Dimethylphenyl)-2,3-dihydro-1,4-benzodioxin-2-yl]methyl}methylamine], the maximal effect (Emax) amounted to 30%.

Regarding `CNCC1COc2cccc(-c3cccc(Cl)c3Cl)c2O1` (centres unmarked) [Compound I-22, {[8-(2,3-Dichlorophenyl)-2,3-dihydro-1,4-benzodioxin-2-yl]methyl}methylamine], the Emax stood at 40%.

For the compound `CNCC1COc2cccc(-c3ccc(F)cc3F)c2O1` (centres unmarked) [Compound I-28, {[8-(2,4-Difluorophenyl)-2,3-dihydro-1,4-benzodioxin-2-yl]methyl}methylamine], the Emax was determined as 30%.

With `CNCC1COc2cccc(-c3cccc(F)c3F)c2O1` (centres unmarked) [Compound I-27, {[8-(2,3-Difluorophenyl)-2,3-dihydro-1,4-benzodioxin-2-yl]methyl}methylamine], the Emax stood at 20%.

For the compound `CNCC1COc2cccc(-c3cc(C)ccc3C)c2O1` (centres unmarked) [Compound I-26, {[8-(2,5-Dimethylphenyl)-2,3-dihydro-1,4-benzodioxin-2-yl]methyl}methylamine], the maximal response (Emax) amounted to 50%.

Consider `CNCC1COc2cccc(-c3ccccc3C)c2O1` (centres unmarked) [Compound I-17, N-Methyl-N-{[8-(2-methylphenyl)-2,3-dihydro-1,4-benzodioxin-2-yl]methyl}amine], for which the maximum response (Emax) turned out to be 60%.

Staying with this data set, now noted: read-out: 5-HT2C Function EC50.
In general, EC50 refers to the concentration needed to bring the measured effect to its halfway point. For `CNCC1COc2cccc(-c3cccc(C)c3C)c2O1` (centres unmarked) [Compound I-25, {[8-(2,3-Dimethylphenyl)-2,3-dihydro-1,4-benzodioxin-2-yl]methyl}methylamine], the EC50 was more than 500 nM.

Regarding `CNCC1COc2cccc(-c3cccc(Cl)c3Cl)c2O1` (centres unmarked) [Compound I-22, {[8-(2,3-Dichlorophenyl)-2,3-dihydro-1,4-benzodioxin-2-yl]methyl}methylamine], the half-maximal effective concentration (EC50) was less than 100 nM.

For the compound `CNCC1COc2cccc(-c3cc(F)ccc3F)c2O1` (centres unmarked) [Compound I-29, {[8-(2,5-Difluorophenyl)-2,3-dihydro-1,4-benzodioxin-2-yl]methyl}methylamine], the EC50 was more than 500 nM.

On to `CNCC1COc2cccc(-c3ccc(F)cc3F)c2O1` (centres unmarked) [Compound I-28, {[8-(2,4-Difluorophenyl)-2,3-dihydro-1,4-benzodioxin-2-yl]methyl}methylamine], for which the EC50 is more than 500 nM.

In the case of `CNCC1COc2cccc(-c3cccc(F)c3F)c2O1` (centres unmarked) [Compound I-27, {[8-(2,3-Difluorophenyl)-2,3-dihydro-1,4-benzodioxin-2-yl]methyl}methylamine], the half-maximal effective concentration (EC50) was 100 to 500 nM.

For `CNCC1COc2cccc(-c3cc(C)ccc3C)c2O1` (centres unmarked) [Compound I-26, {[8-(2,5-Dimethylphenyl)-2,3-dihydro-1,4-benzodioxin-2-yl]methyl}methylamine], the EC50 was less than 100 nM.

For the compound `CNCC1COc2cccc(-c3ccccc3C)c2O1` (centres unmarked) [Compound I-17, N-Methyl-N-{[8-(2-methylphenyl)-2,3-dihydro-1,4-benzodioxin-2-yl]methyl}amine], the half-maximal effective concentration (EC50) is less than 100 nM.

The same data set, now with this note: reference compounds; read-out: EC50.
On to `Cc1cc2c(cc1Cl)N(C(=O)Nc1ccc(Oc3cccnc3C)nc1)CC2` [SB242084, reference compound], for which the EC50 was determined as 0.01 nM.

Tested on in a further data set: not given
Assay: not given
Settings: not given
Usually melting point stands for the temperature of the solid-liquid transition. Consider `C=CCNCC1COc2cccc(-c3ccc(Cl)cc3Cl)c2O1` (centres unmarked) (as salt: fumarate) [Compound I-40, N-{[8-(2,4-Dichlorophenyl)-2,3-dihydro-1,4-benzodioxin-2-yl]methyl}prop-2-en-1-amine], for which the melting point fell in the range of 167 to 168 °C.

With `CNCC1COc2cccc(-c3ccccc3C)c2O1` (centres unmarked) (as salt: fumarate) [Compound I-17, N-Methyl-N-{[8-(2-methylphenyl)-2,3-dihydro-1,4-benzodioxin-2-yl]methyl}amine], the melting point lay in the range of 177 to 178 °C.

`NCC1COc2cccc(-c3ccc(F)cc3F)c2O1` (centres unmarked) (as salt: fumarate) [Compound I-14, {[8-(2,4-Difluorophenyl)-2,3-dihydro-1,4-benzodioxin-2-yl]methyl}amine]: the melting point was 183 to 184 °C.

`C[C@]1(CN)COc2cccc(-c3ccccc3)c2O1` (as salt: fumarate) [Compound I-48, {[(2S)-2-Methyl-8-phenyl-2,3-dihydro-1,4-benzodioxin-2-yl]methyl}amine]: the melting point was 130 to 133 °C.

`NCC1COc2cccc(-c3cc(F)ccc3F)c2O1` (centres unmarked) (as salt: fumarate) [Compound I-15, {[8-(2,5-Difluorophenyl)-2,3-dihydro-1,4-benzodioxin-2-yl]methyl}amine] yielded a melting point of 189 to 190 °C.

`NCC1Oc2cc(F)cc(-c3ccc(Cl)cc3)c2O1` (centres unmarked) (as salt: hydrochloride) [Compound I-79, 1-[4-(4-Chloro-phenyl)-6-fluoro-1,3-benzodioxol-2-yl]methanamine] had a melting point of 262 to 264 °C.

Regarding `COc1ccc(Cl)cc1-c1cccc2c1OC(CN)CO2` (centres unmarked) (as salt: fumarate) [Compound I-16, {[8-(5-Chloro-2-methoxyphenyl)-2,3-dihydro-1,4-benzodioxin-2-yl]methyl}amine], the melting point fell in the range of 192 to 193 °C.

The compound `C[C@]1(CN)COc2cccc(-c3ccsc3)c2O1` (as salt: fumarate) [Compound I-53, {[(2S)-2-Methyl-8-thien-3-yl-2,3-dihydro-1,4-benzodioxin-2-yl]methyl}amine] gave a melting point of 158 to 161 °C.

Turning to `COc1ccccc1-c1cccc2c1OC(CN)CO2` (centres unmarked) (as salt: fumarate) [Compound I-5, {[8-(2-Methoxyphenyl)-2,3-dihydro-1,4-benzodioxin-2-yl]methyl}amine], the melting point is 186 to 187 °C.

With `CNCC1Oc2cc(F)cc(-c3ccccc3Cl)c2O1` (centres unmarked) (as salt: hydrochloride) [Compound I-87, 1-[4-(2-Chlorophenyl)-6-fluoro-1,3-benzodioxol-2-yl]-N-methylmethanamine], the melting point fell in the range of 132 to 134 °C.

On to `NC[C@H]1Oc2cc(F)cc(-c3c(Cl)cccc3Cl)c2O1` (as salt: hydrochloride) [Compound I-85, 1-[(2S)-4-(2,6-dichlorophenyl)-6-fluoro-1,3-benzodioxol-2-yl]methanamine], for which the melting point lay within 224 to 225 °C.

On to `CNCC1COc2cccc(-c3ccccc3OC)c2O1` (centres unmarked) (as salt: fumarate) [Compound I-19, {[8-(2-Methoxyphenyl)-2,3-dihydro-1,4-benzodioxin-2-yl]methyl}methylamine], for which the melting point lay within 168 to 169 °C.

Compound `CCCNCC1COc2cccc(-c3ccc(Cl)cc3Cl)c2O1` (centres unmarked) (as salt: fumarate) [Compound I-35, N-{[8-(2,4-Dichlorophenyl)-2,3-dihydro-1,4-benzodioxin-2-yl]methyl}propan-1-amine] had a melting point of 178 to 179 °C.

As to `NC[C@H]1COc2ccc(F)c(-c3ccc(Cl)cc3Cl)c2O1` (as salt: hydrochloride) [Compound I-75, ((2S)-7-Fluoro-8-(2,4-di-chloro-phenyl)-2,3-dihydrobenzo[b][1,4]dioxin-2-yl) methanamine], the melting point worked out at 65 °C.

The compound `Cc1cccc(-c2cccc3c2OC(CN)CO3)c1C` (centres unmarked) (as salt: fumarate) [Compound I-10, {[8-(2,3-Dimethylphenyl)-2,3-dihydro-1,4-benzodioxin-2-yl]methyl}amine] registered a melting point of 204 to 205 °C.

On to `NCC1COc2cccc(-c3ccc(Cl)cc3Cl)c2O1` (centres unmarked) (as salt: fumarate) [Compound I-7, {[8-(2,4-Dichlorophenyl)-2,3-dihydro-1,4-benzodioxin-2-yl]methyl}amine], for which the melting point fell in the range of 192 to 193 °C.

In turn, `CNCC1COc2cccc(-c3ccc(F)cc3F)c2O1` (centres unmarked) (as salt: fumarate) [Compound I-28, {[8-(2,4-Difluorophenyl)-2,3-dihydro-1,4-benzodioxin-2-yl]methyl}methylamine] showed a melting point of 174 to 175 °C.

As to `Cc1ccccc1-c1cc(F)cc2c1OC(CN)O2` (centres unmarked) (as salt: hydrochloride) [Compound I-80, 1-[4-(2-Methyl-phenyl)-6-fluoro-1,3-benzodioxol-2-yl]methanamine], the melting point lay in the range of 197 to 200 °C.

`NCC1COc2cccc(-c3ccccc3Cl)c2O1` (centres unmarked) (as salt: fumarate) [Compound I-1, {[8-(2-Chlorophenyl)-2,3-dihydro-1,4-benzodioxin-2-yl]methyl}amine] registered a melting point of 210 to 211 °C.

`COc1cccc(-c2cccc3c2OC(CN)CO3)c1OC` (centres unmarked) (as salt: fumarate) [Compound I-9, {[8-(2,3-Dimethoxyphenyl)-2,3-dihydro-1,4-benzodioxin-2-yl]methyl}amine] returned a melting point of 198 to 199 °C.

For the compound `Clc1ccc(-c2cccc3c2OC(CNCC2CC2)CO3)c(Cl)c1` (centres unmarked) (as salt: fumarate) [Compound I-42, (Cyclopropylmethyl) {[8-(2,4-dichlorophenyl)-2,3-dihydro-1,4-benzodioxin-2-yl]methyl}amine], the melting point is 155 to 156 °C.

Compound `COc1ccc(Cl)cc1-c1cc(Cl)cc2c1O[C@@H](CN)CO2` (as salt: hydrochloride) [Compound I-68, (2S)-[6-Chloro-8-(5-chloro-2-methoxy-phenyl)-2,3-dihydro-benzo[1,4]dioxin-2-yl]-methylamine] returned a melting point of 230 to 232 °C.

The compound `NCC1Oc2cc(F)cc(-c3ccccc3C(F)(F)F)c2O1` (centres unmarked) (as salt: hydrochloride) [Compound I-82, 1-[4-(2-Trifluoromethyl-phenyl)-6-fluoro-1,3-benzodioxol-2-yl]methanamine] displayed a melting point of 178 to 180 °C.

`CN(C)CC1Oc2cc(F)cc(-c3ccccc3Cl)c2O1` (centres unmarked) (as salt: hydrochloride) [Compound I-89, 1-[4-(2-chlorophenyl)-6-fluoro-1,3-benzodioxol-2-yl]-N,N-dimethylmethanamine] yielded a melting point of 211 to 212 °C.

Compound `COc1cccc(-c2cc(Cl)cc3c2O[C@@H](CN)CO3)c1OC` (as salt: hydrochloride) [Compound I-63, (2S)-[6-Chloro-8-(2,3-dimethoxy-phenyl)-2,3-dihydro-benzo[1,4]dioxin-2-yl]-methyl amine] displayed a melting point of 197 to 199 °C.

As to `Cc1cc(Cl)ccc1-c1cc(Cl)cc2c1OC(CN)O2` (centres unmarked) (as salt: hydrochloride) [Compound I-97, [6-Chloro-4-(4-chloro-2-methyl-phenyl)-benzo[1,3]dioxol-2-yl]-methylamine], the melting point was more than 250 °C.

`C[C@]1(CN)COc2cccc(-c3ccccc3Cl)c2O1` (as salt: fumarate) [Compound I-49, {[(2S)-8-(2-Chlorophenyl)-2-methyl-2,3-dihydro-1,4-benzodioxin-2-yl]methyl}amine] registered a melting point of 149 to 152 °C.
